Reference: the Kinase Knowledgebase extract (Sharma et al. 2016)

What follows are compounds tested against MAPK14 (human) (UniProt Q16539) (assay: Inhibition of MAPK14 Kinase Activity).
Sequence of MAPK14 (human) (Q16539 whole entry, looked up): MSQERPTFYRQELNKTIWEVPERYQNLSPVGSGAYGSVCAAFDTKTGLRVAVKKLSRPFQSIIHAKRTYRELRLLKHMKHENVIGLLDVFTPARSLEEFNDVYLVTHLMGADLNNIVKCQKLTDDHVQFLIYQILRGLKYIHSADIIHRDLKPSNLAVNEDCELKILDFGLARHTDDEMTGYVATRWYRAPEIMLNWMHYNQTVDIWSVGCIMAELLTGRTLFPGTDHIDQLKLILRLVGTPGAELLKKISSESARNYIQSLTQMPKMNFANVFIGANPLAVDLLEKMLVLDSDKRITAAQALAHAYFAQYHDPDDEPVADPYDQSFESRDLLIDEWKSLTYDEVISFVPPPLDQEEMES

Structure (SMILES) | IC50 | Ki
CC(=O)NCCOc1nc(OCc2ccc(F)cc2F)c(Br)c(=O)n1C(C)C | 51 nM | 27.4 nM
Cc1nc(OCc2ccc(F)cc2F)c(Cl)c(=O)n1C(C)C | 346 nM | 155 nM
CC(C)n1c(N2CC[C@@H](NC(=O)OCc3ccccn3)C2)nc(OCc2ccc(F)cc2F)c(Br)c1=O | 1220 nM | 756 nM
CC(C)n1c(NCC(=O)N2CCCC2)nc(OCc2ccc(F)cc2F)c(Br)c1=O | 215 nM | 102 nM
CC(C)n1c(OCCNC(N)=O)nc(OCc2ccc(F)cc2F)c(Br)c1=O | 2.6 nM | 0.713 nM
COC(=O)c1ccc(CNc2nc(OCc3ccc(F)cc3F)c(Br)c(=O)n2C(C)C)cc1 | 637 nM | 304 nM
CC(C)n1c(O)nc(OCc2ccc(F)cc2F)c(Cl)c1=O | 267 nM | 139 nM
CC(C)n1c(N2CCC[C@H]2C(N)=O)nc(OCc2ccc(F)cc2F)c(Br)c1=O | 23.8 nM | 12.3 nM
CC(C)n1c(NCc2ccc(F)cc2)nc(OCc2ccc(F)cc2F)c(Br)c1=O | 29.9 nM | 13.7 nM
CC(C)n1c(NCCNC(=O)C(C)(C)O)nc(OCc2ccc(F)cc2F)c(Cl)c1=O | 51.6 nM | 24.7 nM
CC(C)n1c(NCC(=O)NCCO)nc(OCc2ccc(F)cc2F)c(Br)c1=O | 221 nM | 105 nM
CC(C)n1c(CCCC(=O)NC[C@@H](C)O)nc(OCc2ccc(F)cc2F)c(Cl)c1=O | 594 nM | 310 nM
C=CCc1nc(OCc2ccc(F)cc2F)c(Cl)c(=O)n1C(C)C | 256 nM | 133 nM
CC(C)n1c(CCC(N)=O)nc(OCc2ccc(F)cc2F)c(Cl)c1=O | 2040 nM | 976 nM
CC(C)n1c(NCCN)nc(OCc2ccc(F)cc2F)c(Br)c1=O | 143 nM | 78.1 nM
Cn1c(NCC(N)=O)nc(OCc2ccc(F)cc2F)c(Br)c1=O | 954 nM | 532 nM
CC(C)n1c(N2CCC(N)C2)nc(OCc2ccc(F)cc2F)c(Br)c1=O (centres undefined) | 150 nM | 62.2 nM
CC(=O)NCCOc1nc(OCc2ccc(F)cc2F)c(Cl)c(=O)n1C(C)C | 80.4 nM | 49.3 nM
CC(C)n1c(N2CC[C@H](NC(=O)C(C)(C)O)C2)nc(OCc2ccc(F)cc2F)c(Cl)c1=O | 864 nM | 555 nM
CC(C)n1cnc(OCc2ccc(F)cc2F)c(Br)c1=O | 53 nM | 28.3 nM
CC(C)n1c(NCCNS(C)(=O)=O)nc(OCc2ccc(F)cc2F)c(Cl)c1=O | 22.3 nM | 10.3 nM

Structure (SMILES) | IC50 | Ki
CC(C)n1c(CNS(C)(=O)=O)nc(OCc2ccc(F)cc2F)c(Br)c1=O | 59.4 nM | 28.5 nM
CC(C)n1c(NCC(C)(C)O)nc(OCc2ccc(F)cc2F)c(Br)c1=O | 31.7 nM | 16.6 nM
CC(C)n1c(OCCNC(=O)NCCO)nc(OCc2ccc(F)cc2F)c(Cl)c1=O | 398 nM | 190 nM
CNC(=O)CNc1nc(OCc2ccc(F)cc2F)c(Br)c(=O)n1C(C)C | 80 nM | 41.9 nM
CC(=O)N1CCC(Nc2nc(OCc3ccc(F)cc3F)c(Br)c(=O)n2C(C)C)CC1 | 87.9 nM | 41.4 nM
CC(C)n1c(-c2ccc(C(N)=O)cc2)nc(OCc2ccc(F)cc2F)cc1=O | 260 nM | 144 nM
CC(C)n1c(CCCC(=O)NCCO)nc(OCc2ccc(F)cc2F)c(Cl)c1=O | 612 nM | 315 nM
CC(C)n1c(NCCNC(=O)C(C)(C)O)nc(OCc2ccc(F)cc2F)c(Br)c1=O | 17.2 nM | 8.14 nM
CC(C)n1c(N2CCN(CC(N)=O)CC2)nc(OCc2ccc(F)cc2F)c(Br)c1=O | 251 nM | 104 nM
CNC(=O)CCCc1nc(OCc2ccc(F)cc2F)c(Cl)c(=O)n1C(C)C | 490 nM | 252 nM
CC(C)n1c(NCCCNC(N)=O)nc(OCc2ccc(F)cc2F)c(Br)c1=O | 5 nM | 2.09 nM
CC(=O)NCCNc1nc(OCc2ccc(F)cc2F)c(Cl)c(=O)n1C(C)C | 28.1 nM | 14.7 nM
CC(=O)N[C@@H]1CCN(c2nc(OCc3ccc(F)cc3F)c(Cl)c(=O)n2C(C)C)C1 | 578 nM | 371 nM
CC(C)n1c(CCC(=O)O)nc(OCc2ccc(F)cc2F)c(Cl)c1=O | 2330 nM | 1110 nM
CC(C)n1c(NCCC(C)(C)C)nc(OCc2ccc(F)cc2F)c(Br)c1=O | 131 nM | 66.1 nM
CNC(=O)CCCc1nc(OCc2ccc(F)cc2F)c(Br)c(=O)n1C(C)C | 557 nM | 255 nM
CC(C)n1c(N2CC[C@@H](NC(=O)CO)C2)nc(OCc2ccc(F)cc2F)c(Cl)c1=O | 372 nM | 238 nM
CC(C)n1c(NCCNC(N)=O)nc(OCc2ccc(F)cc2F)c(Cl)c1=O | 19.6 nM | 10.1 nM
CC(C)n1c(OCCCC(N)=O)nc(OCc2ccc(F)cc2F)c(Cl)c1=O | 155 nM | 73.4 nM
CC(=O)NCCCCc1nc(OCc2ccc(F)cc2F)c(Cl)c(=O)n1C(C)C | 334 nM | 159 nM
CSc1cc(OCc2ccc(F)cc2F)c(Br)c(=O)n1C(C)C | 230 nM | 119 nM
